Tests used:
[1] = tested on: Landrace Yorkshire Duroc (LYD) pigs; assay: Pharmacodynamic (PD) study in pigs, food intake; format: in vivo, pig; conditions: single s.c. dose 3.0 nmol/kg; for PD in pig, food intake (% of vehicle) for hours 0-24: 0-24 h; for PD in pig, food intake (% of vehicle) for hours 24-48: 24-48 h
How it was run: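 Female LYD pigs (~3 months, 30-35 kg, n=3-4) in individual pens, fed ad libitum, received one subcutaneous dose (3.0 nmol/kg) in phosphate buffer vehicle on day 1. Food intake was logged every 15 min and expressed per 24 h interval as percentage of vehicle group; two-way repeated-measures ANOVA with Bonferroni post-test.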

in vivo [2] = conditions: male, Sprague Dawley, rat, iv
in vivo [3] = conditions: male, Göttingen, minipig, iv
human GLP-1 receptor = target: T1, human GLP-1 receptor (Homo sapiens, UniProt P43220); assay: In vitro potency (AlphaScreen cAMP, membranes); format: biochemical; conditions: cAMP formation in membranes from BHK467-12A cells expressing human GLP-1 receptor; read-out: In vitro potency (AlphaScreen) EC50
T1 construct: expressed in transfected cells; host or cells: BHK cells, clone FCW467-12A/KZ10-1 (parent line BHKTS13), further transfected with CRE luciferase
T1 sequence (P43220 24-463): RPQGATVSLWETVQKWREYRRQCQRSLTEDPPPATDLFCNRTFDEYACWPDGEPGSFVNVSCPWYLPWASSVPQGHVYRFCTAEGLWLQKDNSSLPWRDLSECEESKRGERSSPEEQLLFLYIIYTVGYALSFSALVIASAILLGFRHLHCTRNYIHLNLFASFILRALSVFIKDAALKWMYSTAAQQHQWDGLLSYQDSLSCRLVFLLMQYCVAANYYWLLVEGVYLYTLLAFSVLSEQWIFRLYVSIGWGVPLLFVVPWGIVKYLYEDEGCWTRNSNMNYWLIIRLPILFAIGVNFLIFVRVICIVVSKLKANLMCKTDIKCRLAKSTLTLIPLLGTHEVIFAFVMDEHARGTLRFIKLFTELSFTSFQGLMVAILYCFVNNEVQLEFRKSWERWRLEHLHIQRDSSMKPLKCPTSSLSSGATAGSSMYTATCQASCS
How it was run: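 AlphaScreen competition read-out (anti-cAMP acceptor beads vs biotinylated cAMP, 3 h room temperature) quantified cAMP made by human GLP-1 receptor membranes, 6 μg/well, from stably transfected BHK467-12A cells. Buffer pH 7.4 contained 1 mM ATP, 1 μM GTP, 0.5 mM IBMX and 0.1% BSA; cAMP standard curve included.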

| half-life (in vivo [2]) [h] | half-life (in vivo [3]) [h] | EC50 (human GLP-1 receptor) [pM] | SMILES | PD in pig, food intake (% of vehicle) for hours 0-24 [1] | PD in pig, food intake (% of vehicle) for hours 24-48 [1] |
| --- | --- | --- | --- | --- | --- |
| 13 | 56 | 57 | CC[C@H](C)[C@H](NC(=O)[C@H](Cc1ccccc1)NC(=O)[C@H](CCC(=O)O)NC(=O)[C@H](CCCCNC(=O)[C@@H](N)CCCCNC(=O)COCCOCCNC(=O)COCCOCCNC(=O)CC[C@H](NC(=O)CCCCCCCCCCCCC(=O)O)C(=O)O)NC(=O)[C@H](C)NC(=O)[C@H](C)NC(=O)[C@H](CCC(N)=O)NC(=O)CNC(=O)[C@H](CCC(=O)O)NC(=O)[C@H](CC(C)C)NC(=O)[C@H](Cc1ccc(O)cc1)NC(=O)[C@H](CO)NC(=O)[C@H](CO)NC(=O)[C@@H](NC(=O)[C@H](CC(=O)O)NC(=O)[C@H](CO)NC(=O)[C@@H](NC(=O)[C@H](Cc1ccccc1)NC(=O)[C@@H](NC(=O)CNC(=O)[C@H](CCC(=O)O)NC(=O)C(C)(C)NC(=O)[C@@H](N)Cc1c[nH]cn1)[C@@H](C)O)[C@@H](C)O)C(C)C)C(=O)N[C@@H](C)C(=O)N[C@@H](Cc1c[nH]c2ccccc12)C(=O)N[C@@H](CC(C)C)C(=O)N[C@H](C(=O)N[C@@H](CCCNC(=N)N)C(=O)NCC(=O)N[C@@H](CCCNC(=N)N)C(=O)N[C@@H](CCCCNC(=O)[C@@H](N)CCCCNC(=O)COCCOCCNC(=O)COCCOCCNC(=O)CC[C@H](NC(=O)CCCCCCCCCCCCC(=O)O)C(=O)O)C(=O)O)C(C)C [Example 19, N^ε26-[(2S)-2-amino-6-[[2-[2-[2-[[2-[2-[2-[[(4S)-4-carboxy-4-(13-carboxytridecanoylamino)butanoyl]amino]ethoxy]ethoxy]acetyl]amino]ethoxy]ethoxy]acetyl]amino]hexanoyl], N^ε37-[(2S)-2-amino-6-[[2-[2-[2-[[2-[2-[2-[[(4S)-4-carboxy-4-(13-carboxytridecanoylamino)butanoyl]amino]ethoxy]ethoxy]acetyl]amino]ethoxy]ethoxy]acetyl]amino]hexanoyl]-[Aib^8,Arg^34,Lys^37]-GLP-1-(7-37)-peptide] | 52 % of vehicle | 64 % of vehicle |
| 31 | 93 | 385 | CC[C@H](C)[C@H](NC(=O)[C@H](Cc1ccccc1)NC(=O)[C@H](CCC(=O)O)NC(=O)[C@H](CCCCNC(=O)[C@@H](N)CCCCNC(=O)CC[C@H](NC(=O)CC[C@H](NC(=O)CC[C@H](NC(=O)CCCCCCCCCCCCCCC(=O)O)C(=O)O)C(=O)O)C(=O)O)NC(=O)[C@H](C)NC(=O)[C@H](C)NC(=O)[C@H](CCC(N)=O)NC(=O)CNC(=O)[C@H](CCC(=O)O)NC(=O)[C@H](CC(C)C)NC(=O)[C@H](Cc1ccc(O)cc1)NC(=O)[C@H](CO)NC(=O)[C@H](CO)NC(=O)[C@@H](NC(=O)[C@H](CC(=O)O)NC(=O)[C@H](CO)NC(=O)[C@@H](NC(=O)[C@H](Cc1ccccc1)NC(=O)[C@@H](NC(=O)CNC(=O)[C@H](CCC(=O)O)NC(=O)C(C)(C)NC(=O)[C@@H](N)Cc1c[nH]cn1)[C@@H](C)O)[C@@H](C)O)C(C)C)C(=O)N[C@@H](C)C(=O)N[C@@H](Cc1c[nH]c2ccccc12)C(=O)N[C@@H](CC(C)C)C(=O)N[C@H](C(=O)N[C@@H](CCCNC(=N)N)C(=O)NCC(=O)N[C@@H](CCCNC(=N)N)C(=O)N[C@@H](CCCCNC(=O)[C@@H](N)CCCCNC(=O)CC[C@H](NC(=O)CC[C@H](NC(=O)CC[C@H](NC(=O)CCCCCCCCCCCCCCC(=O)O)C(=O)O)C(=O)O)C(=O)O)C(=O)O)C(C)C [Example 13, N^ε26-[(2S)-2-amino-6-[[(4S)-4-carboxy-4-[[(4S)-4-carboxy-4-[[(4S)-4-carboxy-4-(15-carboxypentadecanoylamino)butanoyl]amino]butanoyl]amino]butanoyl]amino]hexanoyl], N^ε37-[(2S)-2-amino-6-[[(4S)-4-carboxy-4-[[(4S)-4-carboxy-4-[[(4S)-4-carboxy-4-(15-carboxypentadecanoylamino)butanoyl]amino]butanoyl]amino]butanoyl]amino]hexanoyl]-[Aib^8,Arg^34,Lys^37]-GLP-1-(7-37)-peptide] | – | – |
| 28 | 109 | 227 | CC[C@H](C)[C@H](NC(=O)[C@H](Cc1ccccc1)NC(=O)[C@H](CCC(=O)O)NC(=O)[C@H](CCCCNC(=O)[C@@H](N)CCCCNC(=O)[C@@H](N)CCCCNC(=O)CC[C@H](NC(=O)CC[C@H](NC(=O)CCCCCCCCCCCCCCC(=O)O)C(=O)O)C(=O)O)NC(=O)[C@H](C)NC(=O)[C@H](C)NC(=O)[C@H](CCC(N)=O)NC(=O)CNC(=O)[C@H](CCC(=O)O)NC(=O)[C@H](CC(C)C)NC(=O)[C@H](Cc1ccc(O)cc1)NC(=O)[C@H](CO)NC(=O)[C@H](CO)NC(=O)[C@@H](NC(=O)[C@H](CC(=O)O)NC(=O)[C@H](CO)NC(=O)[C@@H](NC(=O)[C@H](Cc1ccccc1)NC(=O)[C@@H](NC(=O)CNC(=O)[C@H](CCC(=O)O)NC(=O)C(C)(C)NC(=O)[C@@H](N)Cc1c[nH]cn1)[C@@H](C)O)[C@@H](C)O)C(C)C)C(=O)N[C@@H](C)C(=O)N[C@@H](Cc1c[nH]c2ccccc12)C(=O)N[C@@H](CC(C)C)C(=O)N[C@H](C(=O)N[C@@H](CCCNC(=N)N)C(=O)NCC(=O)N[C@@H](CCCNC(=N)N)C(=O)N[C@@H](CCCCNC(=O)[C@@H](N)CCCCNC(=O)[C@@H](N)CCCCNC(=O)CC[C@H](NC(=O)CC[C@H](NC(=O)CCCCCCCCCCCCCCC(=O)O)C(=O)O)C(=O)O)C(=O)O)C(C)C [Example 12, N^ε26-[(2S)-2-amino-6-[[(2S)-2-amino-6-[[(4S)-4-carboxy-4-[[(4S)-4-carboxy-4-(15-carboxypentadecanoylamino)butanoyl]amino]butanoyl]amino]hexanoyl]amino]hexanoyl], N^ε37-[(2S)-2-amino-6-[[(2S)-2-amino-6-[[(4S)-4-carboxy-4-[[(4S)-4-carboxy-4-(15-carboxypentadecanoylamino)butanoyl]amino]butanoyl]amino]hexanoyl]amino]hexanoyl]-[Aib^8,Arg^34, Lys^37]-GLP-1-(7-37)-peptide] | – | – |
| 28 | 97 | 492 | CC[C@H](C)[C@H](NC(=O)[C@H](Cc1ccccc1)NC(=O)[C@H](CCC(=O)O)NC(=O)[C@H](CCCCNC(=O)[C@@H](N)CCCCNC(=O)COCCOCCNC(=O)COCCOCCNC(=O)CC[C@H](NC(=O)CCCCCCCCCCCCCCC(=O)O)C(=O)O)NC(=O)[C@H](C)NC(=O)[C@H](C)NC(=O)[C@H](CCC(N)=O)NC(=O)CNC(=O)[C@H](CCC(=O)O)NC(=O)[C@H](CC(C)C)NC(=O)[C@H](Cc1ccc(O)cc1)NC(=O)[C@H](CO)NC(=O)[C@H](CO)NC(=O)[C@@H](NC(=O)[C@H](CC(=O)O)NC(=O)[C@H](CO)NC(=O)[C@@H](NC(=O)[C@H](Cc1ccccc1)NC(=O)[C@@H](NC(=O)CNC(=O)[C@H](CCC(=O)O)NC(=O)C(C)(C)NC(=O)[C@@H](N)Cc1c[nH]cn1)[C@@H](C)O)[C@@H](C)O)C(C)C)C(=O)N[C@@H](C)C(=O)N[C@@H](Cc1c[nH]c2ccccc12)C(=O)N[C@@H](CC(C)C)C(=O)N[C@H](C(=O)N[C@@H](CCCNC(=N)N)C(=O)NCC(=O)N[C@@H](CCCNC(=N)N)C(=O)N[C@@H](CCCCNC(=O)[C@@H](N)CCCCNC(=O)COCCOCCNC(=O)COCCOCCNC(=O)CC[C@H](NC(=O)CCCCCCCCCCCCCCC(=O)O)C(=O)O)C(=O)O)C(C)C [Example 10, N^ε26-[(2S)-2-amino-6-[[2-[2-[2-[[2-[2-[2-[[(4S)-4-carboxy-4-(15-carboxypentadecanoylamino)butanoyl]amino]ethoxy]ethoxy]acetyl]amino]ethoxy]ethoxy]acetyl]amino]hexanoyl], N^ε37-[(2S)-2-amino-6-[[2-[2-[2-[[2-[2-[2-[[(4S)-4-carboxy-4-(15-carboxypentadecanoylamino)butanoyl]amino]ethoxy]ethoxy]acetyl]amino]ethoxy]ethoxy]acetyl]amino]hexanoyl]-[Aib^8,Arg^34,Lys^37]-GLP-1-(7-37)-peptide] | 105 % of vehicle | 104 % of vehicle |

— patent US10604554B2, “Double-acylated GLP-1 derivatives” (Novo Nordisk A/S, priority 2012, dated 2020)
